According to patent US20220175795A1, “USE OF FULVESTRANT FOR THE THERAPEUTIC CARE OF CENTRAL CORE DISEASE” (UNIVERSITÉ GRENOBLE ALPES, priority 2019, published 2022):
Entries after “also recorded” stand apart in the source; their conditions may differ.

What was measured:
[1] = system: RyR1^Rec mice (model of central core disease); test: Animal grip test (gripping time on inverted grid) in inducible RyR1 KO mice; format: in vivo
Protocol: For this study, an inducible and non-lethal model of KO mice for RyR1 developed in the laboratory was used. In these mice, exons 9 to 11 of the RYR1 gene are flanked by LoxP sites on both alleles (RYR1 fl/fl).
KO was induced by intraperitoneal injections of tamoxifen (Sigma) eight weeks after birth, at 1 mg/day for five days. It is important to note that all animals have received these injections, whether they have the HSA-Cre allele or not.
Exclusively in animals having the HSA-Cre allele, tamoxifen (TAM) causes the translocation of the Cre recombinase to the nucleus, thus allowing the recombination of the LoxP sites and the deletion of exons 9-11 from the RYR1 gene (FIG. 1). In order to improve the understanding, the mice in which the recombination cannot be made will be referred to as the RyR1^Ctrl mice in the following document. The recombinant mice after intraperitoneal administration of TAM will be referred to as RyR1^Rec mice.
For the treatment of animals, fulvestrant was prepared from a commercial solution of Faslodex 250 mg (AstraZeneca). This solution was diluted in physiological serum and 0.27 mg of fulvestrant was injected to each mouse (weight of 20 g) in 50 μl volume. The injections were carried out intramuscularly in the quadriceps once per week.
In order to evaluate the muscular strength of the animals, the mice were placed on a grid which was then turned upside down. The duration during which the mice remain gripped at the grid has been timed to a limit of 300 seconds. This measurement was carried out in a weekly manner over the entire population of mice of the study.
The strength of the animals is followed by a grip test (gripping test) once a week, just before the injections.

[2] = system: immortalized human MELA cells; test: Calcium imaging (Fluo-4, KCl 140 mM stimulation) on cells of a central core disease patient; format: cell-based; details: 7 days in differentiation medium, not statistically significant
Description: The MELA cells are immortalized human cells derived from a biopsy of a patient suffering from central core disease, including in particular a quantitative defect of RyR1 and a calcium release defect (Rendu et al., 2013). These cells were immortalised by the team of Vincent Mouly (Institute of Myology, Paris).
(§1) The medium has been renewed 4 days after placing in the differentiation medium.
(§2) For human cells, the shape of the cells not allowing them to be distinguished individually in an accurate manner, the measurements were made on a single region of interest per well corresponding to the total surface covered by the myotubes. 4 to 6 wells were measured for each repetition of the experiment.
(§3) Fulvestrant was tested on human muscle cells having or not a calcium release defect (human cells CTRL or MELA), by incubation of 7 days in differentiation medium.

[3] = system: human control cells CTRL; test: Calcium imaging (Fluo-4, KCl 140 mM stimulation) on human control muscle cells; format: cell-based; details: 7 days in differentiation medium
Protocol: The CTRL cells are immortalized human cells from a biopsy of a healthy subject having no calcium release abnormality.
as §1, §2, §3

[4] = system: recombinant RyR1 cells (RyR1-Rec murine myotubes); details: 72 h, 0.1 µM
Protocol: The satellite cells were isolated from the skeletal muscles of the lower limbs of the neonate mice RyR1^Ctrl according to the procedure described in Marty et al, 2000.
The cells were seeded in 96 well plates (75,000 cells/well) previously coated with laminin. The cells were first cultured in the proliferation medium composed of Ham's F-10 Nutrient Mix (Life Technologies), 20% fetal calf serum (Life Technologies), 2% Ultroser G (PALL) and 2% Penicillin-Streptomycin (Life Technologies).
In order to induce floxed RyR1 gene recombination, the cells thus have been transduced 12 hours after seeding with adenoviruses allowing the expression of Cre recombinase, AdV-Cre (Utah University), to a multiplicity of infections (multiplicity of infection, or MOI) of 64. […]
The films were analyzed by the Fiji (Schindelin et al., 2012) and Prim (GraphPad) softwares.
For murine cells, the fluorescence measurements were performed on regions of interest each corresponding to a myotube, with several tens of myotubes measured for each repetition of the experiment.
The intensity of the calcium release was evaluated in response to a stimulation by KCl 140 mM (mimicking a depolarization at ˜0 mV). […]

`C[C@]12CC[C@@H]3c4ccc(O)cc4C[C@@H](CCCCCCCCC[S+]([O-])CCCC(F)(F)C(F)(F)F)[C@H]3[C@@H]1CC[C@@H]2O` (some centres unmarked) [fulvestrant] was tested, and the “strength (gripping time) vs untreated mice” value ([1]; female RyR1^Rec mice, intramuscular injection once a week, grip test weekly (limit 300 seconds)) was “very sharp improvement; also recorded: significantly improved”, the “strength over the entire duration of the treatment” value ([1]; mice with induced central core disease, 75 days of treatment) was “did not lose strength” and the “effect on calcium release” value ([2]; fulvestrant 100 nM) was “tends to increase calcium release; also recorded: tendency to improve the calcium release”. The “effect on calcium release” value ([2]; fulvestrant 250 nM) was “tends to increase the release of calcium”, the “effect on calcium release” value ([3]; fulvestrant 100 nM) was “has no effect; also recorded: does not have an effect” and the “effect on calcium release” value ([3]; fulvestrant 250 nM) was “has no effect; also recorded: does not have any effect”. For the same molecule, the “increase of the calcium release peak vs untreated cells” value [4] was 28% and the “magnitude of the calcium release peak (Fluo-4 fluorescence)” value [4] was 0.40+/−0.04.
